Laboratory results: publication PMC11607671, “Antiviral activity of cathelicidins against porcine epidemic diarrhea virus (PEDV): Mechanisms, and efficacy” (Virus Research, 2024)

Tests used:
[1] = test system: Vero cells; assay: LDH release cytotoxicity assay; type: cell-based, African green monkey; conditions: 0-10 µM AMPs in DMEM, 3 h and 24 h, LDH release relative to 1% Triton X-100 lysis, three independent experiments, Fig. 1A+B
Description: Vero-mCeacam cells (Vero cells), derived from African green monkey kidney cells, were maintained in DMEM (Gibco, Thermo Fisher Scientific, Waltham, MA) supplemented with 10% FCS (Bodinco B.V., Alkmaar, The Netherlands) and 200 units/mL penicillin, and […] (P/S) (Gibco, Life Technologies Limited, Paisley, UK) at 37 °C and 5% CO2.
To assess the cytotoxicity of peptides, Vero cells were treated with AMPs (0 − 10 μM in DMEM) as outlined in paragraph 2.5. After 3 and 24 h of stimulation, the fraction of lactate dehydrogenase (LDH) released into the culture supernatant was measured using the Cyto Tox 96 nonradioactive cytotoxicity kit (Promega GmbH, Walldorf, Germany) according to the manufacturer's instructions, and expressed as a percentage of the maximum LDH release from cells, lysed by 1% Triton X-100 (Sigma-Aldrich, T8787, Darmstadt, Germany).
Fig. 1 The cytotoxicity of AMPs on Vero cells. Cells were incubated with 0 – 10 µM AMPs for either 3 h or 24 h A and B) LDH release assay, indicating cell membrane permeability after 3 and 24 h, respectively. C and D) WST assay, measuring cell metabolic activity after 3 and 24 h, respectively. ‘No peptide‘ represents cells incubated with only growth medium for the indicated times, serving as a control. P.C in the LDH assay are cells that have been lysed by the lysis buffer representing 100% release of intracellular LDH. […]

[2] = test system: PEDV; assay: Co-incubation antiviral assay, PEDV MOI=1, Vero cells; type: cell-based, Porcine epidemic diarrhea virus; conditions: Fig. 4B
Description: In order to determine the effect of AMPs on the infectivity of PEDV, Vero cells (5 × 10^5 per well) were seeded in 12-well plates and cultured overnight at 37 °C, 5% CO2. In a co-incubation of virus and AMPs experiments (Fig. 2A), the mixture of AMPs (0–10 µM) and PEDV-GFP (MOI= 0.3) in a 1 mL volume of DMEM (P/S + 10% FCS) was added to the cells and incubated at 37 °C. After 2 h, the supernatant was replaced with fresh DMEM (P/S + 10% FCS) and incubated for 24 h. Subsequently, the cells were washed 2 times with flow cytometry buffer (500 mL PBS+ 10 mL FCS+ 250 µL of 10% NaN3) and were imaged with an EVOS M5000 Imaging System for semi-quantitative determination of infectivity. Eventually, cells were carefully detached by 2.5% trypsin, stained with ViaKrome 808 fixable viability dye (1:1000), and incubated for 30 min at 4 °C. Following washing, the cells were fixed using 50 µL of 4% PFA for 10 min, and a minimum of 1 × 10^5 cells were acquired using the CytoFLEX LX Flow Cytometer (FC)(Beckman Coulter, USA). Data was analyzed using FlowJo software v.10.6 (Flowjo LCC, Ashland, OR, USA).
Fig. 4 The inhibitory effect of AMPs on PEDV at MOI=1. A) Fluorescence microscopy image was captured at 20 × magnification to visualize the GFP fluorescence signal in Vero cells following co-incubation of AMPs and PEDV at MOI=1. B) The percentage of GFP-positive cells was determined by FC after 3 h co-incubation of PEDV and AMPs. C) The fluorescence intensity of GFP across three different concentrations of LL-37 was illustrated through the FC histogram. […] The reported values in 4A represent the mean ± SD of three independent experiments performed in duplicate **** p < 0.0001.

[3] = test system: PEDV-GFP; assay: Pre-incubation (pre-treatment) antiviral assay; type: cell-based, Porcine epidemic diarrhea virus; conditions: Vero cells treated 3 h with AMPs (0-10 µM), washed, then infected with PEDV-GFP MOI 0.3 for 2 h; FC; Fig. 6B, C
Description: The effect of AMPs on viral infectivity was also determined when they were added to Vero-cells before (pre-treatment) or after (post-treatment) infection. In the pre-treatment assay (Fig. 6A), Vero cells were treated with different concentrations of CATH-B1 and LL-37 peptides (ranging from 0 to 10 µM) for various durations (1, 2, 3, 4, and 24 h) at 37 °C. Subsequently, the cells were washed 2 times with PBS and infected with PEDV-GFP at an MOI of 0.3 for 2 h
(§1) In post-incubation assays (Fig. 7A), cells were initially exposed to the virus for 2 h, washed 2times with PBS and subsequently treated with AMPs for 3 h Both for pre- and post-infection assays, after the respective incubation periods, the cells were assessed using fluorescence microscopy and quantified using FC as described above.
Fig. 6 Effects of AMPs in pre-incubation assay. A) Experimental set-up of pre-incubation experiment. B) FC was employed to quantify the percentage of GFP-positive cells during pre-incubation. […] The reported values represent the mean ± SD derived from three independent experiments performed in triplicate. * p < 0.05; ** p < 0.01.

[4] = test system: PEDV-GFP; assay: Post-incubation (post-treatment) antiviral assay; type: cell-based, Porcine epidemic diarrhea virus; conditions: Vero cells exposed to PEDV-GFP 2 h, washed, then AMPs for 3 h; FC; Fig. 7B, C
Description: as §1
Fig. 7 Effects of AMPs in post-incubation assay. A) Design and setup of post-incubation assay. B) The percentage of GFP-positive cells was quantified using FC during post-incubation. C) The FC histogram illustrates the fluorescence intensity of GFP after treatment with CATH-B1 and LL-37. […] The reported values represent the mean ± SD derived from three independent experiments performed in triplicate.

LLGDFFRKSKEKIGKEFKRIVQRIKDFLRNLVPRTES [LL-37, human cathelicidin antimicrobial peptide, 37 residues]
cytotoxicity (LDH release) [1]: no toxic effects | % infected cells (FC), co-incubation at MOI=1 ([2]; 10 µM peptide, PEDV MOI=1, Vero cells, no-peptide control almost 100%): 30% | antiviral effect at MOI=1, in words ([2]; PEDV MOI=1, co-incubation, Vero cells, FC): remained strong | antiviral activity in pre-incubation assay, in words [3]: potent inhibition of viral infection in Vero cells at all three concentrations | antiviral activity in post-incubation assay, in words [4]: very moderate effect
